Read-outs that look alike come from different tables or passages of the source.
Assays:
PI3Kδ (p110δ/p85α) = biological target: T1, PI3Kδ (p110δ/p85α) (Homo sapiens, UniProt O00329); assay: PI3Kδ scintillation proximity assay; type: biochemical
T1 construct: purchased Millipore (Bedford, Mass.)
Summary of the method: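 IC50 was fitted to percent control activity against log concentration, from scintillation proximity counting of 33P-labelled lipid product captured on WGA beads after an EDTA quench. Reactions ran 210 minutes at room temperature: 4 nM PI3Kδ (p110δ/p85α), 20 μM PIP2, 20 μM ATP, pH 6.7 MOPS buffer, 0.5% DMSO.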

[1] = test system: Pfeiffer cell line (diffuse large B cell lymphoma); assay: Pfeiffer cell proliferation assay; type: cell-based
Protocol: Pfeiffer cell line (diffuse large B cell lymphoma) was purchased from ATCC (Manassas, Va.) and maintained in the culture medium recommended (RPMI and 10% FBS). To measure the anti-proliferation activity of the compounds, the Pfeiffer cells were plated with the culture medium (2×10^3 cells/well/per 200 μl) into 96-well ultra-low binding plates (Corning, Corning, N.Y.), in the presence or absence of a concentration range of test compounds. […]

[2] = Homo sapiens, Pfeiffer, first of two isolated isomers
[3] = Homo sapiens, Pfeiffer, second of two isolated isomers

T1 sequence (O00329 whole entry): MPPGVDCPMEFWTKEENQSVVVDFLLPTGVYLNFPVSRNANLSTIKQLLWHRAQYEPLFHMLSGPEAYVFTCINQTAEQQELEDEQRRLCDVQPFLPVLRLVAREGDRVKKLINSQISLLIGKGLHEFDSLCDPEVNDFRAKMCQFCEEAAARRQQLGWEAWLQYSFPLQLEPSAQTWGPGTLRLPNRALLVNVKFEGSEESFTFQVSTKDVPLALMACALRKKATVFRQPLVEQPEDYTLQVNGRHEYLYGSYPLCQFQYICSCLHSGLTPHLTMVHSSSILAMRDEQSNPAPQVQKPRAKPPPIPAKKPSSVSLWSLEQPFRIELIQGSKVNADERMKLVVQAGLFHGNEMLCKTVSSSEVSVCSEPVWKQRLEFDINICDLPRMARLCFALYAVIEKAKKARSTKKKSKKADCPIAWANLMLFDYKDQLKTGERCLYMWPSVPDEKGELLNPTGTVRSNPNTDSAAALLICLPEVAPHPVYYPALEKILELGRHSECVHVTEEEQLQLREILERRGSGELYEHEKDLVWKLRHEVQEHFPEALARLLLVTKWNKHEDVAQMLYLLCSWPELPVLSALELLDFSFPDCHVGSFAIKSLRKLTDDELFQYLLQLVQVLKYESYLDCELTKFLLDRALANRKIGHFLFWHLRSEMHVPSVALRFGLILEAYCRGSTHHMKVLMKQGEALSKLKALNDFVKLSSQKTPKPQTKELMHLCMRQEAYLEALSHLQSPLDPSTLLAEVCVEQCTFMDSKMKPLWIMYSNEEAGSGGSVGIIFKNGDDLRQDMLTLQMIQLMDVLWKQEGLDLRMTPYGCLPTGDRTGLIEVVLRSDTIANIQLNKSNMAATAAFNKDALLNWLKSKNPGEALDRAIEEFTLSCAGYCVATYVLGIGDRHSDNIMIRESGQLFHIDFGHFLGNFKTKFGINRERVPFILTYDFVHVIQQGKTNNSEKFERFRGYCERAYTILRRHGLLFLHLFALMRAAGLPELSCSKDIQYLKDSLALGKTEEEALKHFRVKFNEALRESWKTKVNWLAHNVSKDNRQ
T1 sequence (P27986 whole entry partner): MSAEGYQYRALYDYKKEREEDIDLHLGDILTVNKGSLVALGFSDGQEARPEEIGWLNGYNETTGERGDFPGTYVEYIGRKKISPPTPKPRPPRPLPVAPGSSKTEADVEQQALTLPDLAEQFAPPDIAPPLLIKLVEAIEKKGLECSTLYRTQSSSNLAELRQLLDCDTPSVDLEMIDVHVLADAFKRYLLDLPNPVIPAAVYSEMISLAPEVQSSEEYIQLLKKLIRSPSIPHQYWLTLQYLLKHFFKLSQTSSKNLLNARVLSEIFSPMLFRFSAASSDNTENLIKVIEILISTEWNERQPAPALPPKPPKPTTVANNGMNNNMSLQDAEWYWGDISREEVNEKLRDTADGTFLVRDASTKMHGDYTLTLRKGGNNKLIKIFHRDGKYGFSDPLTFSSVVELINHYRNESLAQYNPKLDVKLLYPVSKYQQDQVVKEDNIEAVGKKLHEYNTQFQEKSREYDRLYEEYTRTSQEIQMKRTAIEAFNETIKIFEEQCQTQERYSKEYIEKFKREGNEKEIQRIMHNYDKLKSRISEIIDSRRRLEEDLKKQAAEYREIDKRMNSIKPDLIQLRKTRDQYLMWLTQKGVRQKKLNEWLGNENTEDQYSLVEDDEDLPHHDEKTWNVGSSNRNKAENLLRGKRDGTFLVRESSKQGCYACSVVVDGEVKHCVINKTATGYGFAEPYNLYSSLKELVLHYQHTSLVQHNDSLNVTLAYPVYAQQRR

IC50 (PI3Kδ (p110δ/p85α)) [µM]	IC50 ([1]; [3H]-thymidine incorporation) [µM]	IC50 (PI3Kδ (p110δ/p85α); separated isomer, 1st peak) [µM]	IC50 (PI3Kδ (p110δ/p85α); separated isomer, 2nd peak) [µM]	IC50 [1, 2] [µM]	IC50 [1, 3] [µM]	Structure (SMILES)
< 0.05	< 0.05					Cc1cc(C(C)Nc2ncnc3[nH]cnc23)c(-c2cccc(F)c2)c2nnccc12 (single isomer, unassigned) [Example 36, N-{1-[8-(3-fluorophenyl)-5-methylcinnolin-7-yl]ethyl}-9H-purin-6-amine]
0.5 to 1	0.5 to 1					Cc1cc(C(C)Nc2ncnc3[nH]cnc23)c(-c2cccc(F)c2)c2nnccc12 (single isomer, unassigned) [Example 37, N-{1-[8-(3-fluorophenyl)-5-methylcinnolin-7-yl]ethyl}-9H-purin-6-amine]
		> 1	0.1 to 0.25		0.25 to 0.5	CC(Nc1ncnc2[nH]cnc12)c1cc(F)c2cccnc2c1N1CC[C@@H](O)C1 (stereo partly drawn) [Example 53, (3R)-1-{5-fluoro-7-[1-(9H-purin-6-ylamino)ethyl]quinolin-8-yl}pyrrolidin-3-ol]
> 1					0.25 to 0.5	CC(Nc1ncnc2[nH]cnc12)c1cc(Cl)c2cccnc2c1N1CCC(Oc2ccccc2)CC1 (centres unmarked) [Example 75, N-{1-[5-Chloro-8-(4-phenoxypiperidin-1yl)quinolin-7-yl]ethyl}-9H-purin-6-amine bis(trifluoroacetate)]

The next lines start with the molecule.

Structure (SMILES)	IC50 (PI3Kδ (p110δ/p85α)) [µM]	IC50 ([1]; [3H]-thymidine incorporation) [µM]	IC50 (PI3Kδ (p110δ/p85α); separated isomer, 1st peak) [µM]	IC50 (PI3Kδ (p110δ/p85α); separated isomer, 2nd peak) [µM]	IC50 [1, 2] [µM]	IC50 [1, 3] [µM]
CC(Nc1ncnc2[nH]cnc12)c1cc(Cl)c2cccnc2c1N1CCC[C@H](O)C1 (stereo partly drawn) [Example 48, (3S)-1-{5-Chloro-7-[1-(9H-purin-6-ylamino)ethyl]quinolin-8-yl}piperidin-3-ol]			< 0.05	> 1	> 1	> 1
CC(Nc1ncnc2[nH]cnc12)c1cc(Cl)c2cccnc2c1N1CCCC(CO)C1 (centres unmarked) [Example 63, (1-{5-Chloro-7-[1-(9H-purin-6-ylamino)ethyl]quinolin-8-yl]piperidin-3-yl)methanol tris(trifluoroacetate)]			0.1 to 0.25	0.1 to 0.25	> 1	> 1
COC1CCCN(c2c(C(C)Nc3ncnc4[nH]cnc34)cc(Cl)c3cccnc23)C1 (centres unmarked) [Example 67, N-{1-[5-Chloro-8-(3-methoxypiperidin-1-yl)quinolin-7-yl]ethyl}-9H-purin-6-amine tris(trifluoroacetate)]			0.1 to 0.25	0.25 to 0.5	0.1 to 0.25	0.1 to 0.25
COC1CCN(c2c(C(C)Nc3ncnc4[nH]cnc34)cc(Cl)c3cccnc23)C1 (centres unmarked) [Example 68, N-{1-[5-Chloro-8-(3-methoxypyrrolidin-1-yl)quinolin-7-yl]ethyl}-9H-purin-6-amine tris(trifluoroacetate)]			0.05 to 0.1	< 0.05	0.1 to 0.25	0.05 to 0.1
CC(C)C(=O)N[C@H]1CCN(c2c(C(C)Nc3ncnc4[nH]cnc34)cc(Cl)c3cccnc23)C1 (stereo partly drawn) [Example 78, N-((3S)-1-{5-Chloro-7-[1-(9H-purin-6-ylamino)ethyl]quinolin-8-yl}pyrrolidin-3-yl)-2-methylpropanamide tris(trifluoroacetate)]			> 1	< 0.05		0.5 to 1
COC(=O)N[C@H]1CCN(c2c(C(C)Nc3ncnc4[nH]cnc34)cc(Cl)c3cccnc23)C1 (stereo partly drawn) [Example 79, Methyl((3S)-1-{5-Chloro-7-[1-(9H-purin-6-ylamino)ethyl]quinolin-8-yl}pyrrolidin-3-yl)carbamate tris(trifluoroacetate)]			0.05 to 0.1	< 0.05	0.25 to 0.5	0.1 to 0.25
CC(Nc1ncnc2[nH]cnc12)c1cc(Cl)c2cccnc2c1N1CC[C@H](NS(C)(=O)=O)C1 (stereo partly drawn) [Example 80, N-((3S)-1-{5-Chloro-7-[1-(9H-purin-6-ylamino)ethyl]quinolin-8-yl}pyrrolidin-3-yl)methanesulfonamide tris(trifluoroacetate)]			0.25 to 0.5	< 0.05		0.1 to 0.25

Source: patent US8680108B2, “Substituted fused aryl and heteroaryl derivatives as PI3K inhibitors” (Incyte Corporation, priority 2009, dated 2014)
